Common to all, as to assay: inhibition of tumour cell growth, NCI panel, 48 h
The subject of experiment [1] is SK-MEL-28 melanoma.
Experiment [2] deals with M14 melanoma.
The subject of experiment [3] is SK-MEL-2 melanoma.
Experiment [4] has as its system UACC-257 melanoma.
Experiment [5] deals with CCRF-CEM leukemia.
Experiment [6] deals with A498 renal.
For experiment [7], the system named is K-562 leukemia.
The subject of experiment [8] is NCI/ADR-RES ovarian.
The subject of experiment [9] is T-47D breast.
For experiment [10], the system named is HS 578T breast.

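A five-concentration, 48-hour dose response in 96-well plates underlies each endpoint, interpolated linearly between surrounding concentrations. The concentration for full growth arrest is given as TGI.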 A value given as a limit tells only on which side of the number the result lay.

As to `CCc1cc(C)cc2[n+]1CC=C2`, the TGI is greater than 100 µM in [1], 80.7 µM in experiment [2], 40.2 µM in [3] and 39.7 µM in experiment [4].

Turning to `O=c1cc(-c2ccccc2)[nH]c2ncccc12`, the TGI in experiment [1] was greater than 100 µM; in experiment [5], greater than 100 µM; in [2], greater than 100 µM; in [6], greater than 100 µM; in experiment [7] it was greater than 100 µM; in experiment [8], 0.414 µM. In addition, the TGI in experiment [9] and in experiment [4] was greater than 100 µM throughout.

As for `O=C(CN1CCCC1=O)CS(=O)(=O)c1ccccc1`, the TGI in [1], in [5], in [2], in [3], in experiment [7] and in experiment [8] was greater than 100 µM in each case. In addition, the TGI in experiment [4] and in experiment [10] was greater than 100 µM in each case.

Take `COC1OCC(O)C(NC(=O)N(C)N=O)C1O` (stereo unspecified): the TGI in [1], in [5], in [6], in experiment [3], in experiment [7] and in experiment [8] was greater than 100 µM each time. In experiment [4], this molecule had a TGI greater than 100 µM.

As for `CC#C[C@]1(O)CCC2[C@@H]3CCC4=CC(=O)CCC4=C3[C@@H](c3ccc(N(C)C)cc3)C[C@@]21C` (stereo partly specified), the TGI in experiment [1] is 29.5 µM; in experiment [5] it was 37.5 µM; in experiment [2] it was 32.1 µM; in experiment [7] it was 58.8 µM; in experiment [8], 89.3 µM; in [9] it was greater than 100 µM. Besides, the results for the TGI in [4] and in [10] were 36.5 µM and 33.9 µM, respectively.

On to `O=c1[nH]c2ccccc2c(O)c1Cc1ccccc1`, for which the TGI in [1], in experiment [5], in [6], in experiment [7], in [8] and in experiment [4] was greater than 100 µM throughout. The same molecule yielded a TGI in experiment [10] greater than 100 µM.

Take `Cc1cc2nc3c(C#N)c4c(c(Nc5ccc(F)cc5)n3c2cc1C)CCC4`: the TGI in experiment [1], in experiment [5], in experiment [2], in [3], in [7] and in experiment [8] was greater than 100 µM in each case. Also, the TGI in experiment [9], in [4] and in [10] was greater than 100 µM in each case.

With `Cc1c(Cc2ccccc2)n(C(C)OCCN(OC(=O)Oc2ccccc2)C(=O)Oc2ccccc2)c(=O)[nH]c1=O` (stereo unspecified), the TGI came to 42 µM in experiment [1]; 50 µM in experiment [5]; 32 µM in [2]; 37.2 µM in [3]; 93.5 µM in [7]; 39.1 µM in [8]. Further, the TGI in [4] came to 30.2 µM; in experiment [10] it was 42.6 µM.

As for `Cn1c(-c2ccc(-c3cc(-c4cccs4)c(-c4cccs4)n3C)cc2)cc(-c2cccs2)c1-c1cccs1`, the TGI in experiment [1], in experiment [5], in [2], in experiment [3], in [7] and in [8] was greater than 100 µM in each case. For the same molecule, the TGI in experiment [9], in experiment [4] and in [10] was greater than 100 µM in each case.

Consider `O=C(Cc1nc2ccc(C(=O)c3ccccc3)cc2[nH]c1=O)C(=O)Nc1nc2ccccc2[nH]1`, for which the TGI in experiment [1], in experiment [5], in experiment [2] and in experiment [4] was greater than 100 µM in each case.

Take `Cc1ccc(/C=C/C(=O)Oc2ccc(/C=C3\CCC/C(=C\c4ccc(OC(=O)/C=C/c5ccc(C)cc5)cc4)C3=O)cc2)cc1`: the TGI in experiment [1], in [5], in experiment [2], in [3], in experiment [8] and in experiment [9] was greater than 100 µM each time. For the same molecule, the TGI in [4] and in [10] was greater than 100 µM in each case.

In the case of `Nc1nc(NCCOCP(=O)(O)O)c([N+](=O)[O-])c(=O)[nH]1`, the TGI in experiment [1], in experiment [5], in experiment [2], in [3], in experiment [7] and in experiment [4] was greater than 100 µM throughout.

As for `CC(C)(C)NC1=NC(C(F)(F)F)(C(F)(F)F)NC(=O)N1`, the TGI in [1], in experiment [5], in [2], in [3], in experiment [7] and in [8] was greater than 100 µM throughout. In addition, the TGI in experiment [9], in experiment [4] and in experiment [10] was greater than 100 µM throughout.

For `Cc1ccccc1NC(=O)Cc1csc(N/N=C2\NC(=O)/C(=C/c3cccc([N+](=O)[O-])c3)S2)n1`, the TGI in [1] is 55.3 µM; in [2] it was 31.3 µM; in experiment [3], 71.1 µM; in experiment [8], greater than 100 µM; in [9] it was 55.1 µM; in experiment [4] it was 41.9 µM.

`CN(C)C(=O)Oc1c(Br)cc(Br)cc1C(=O)OCc1ccccc1`: the TGI in experiment [1] is 97.3 µM; in [5], 68.3 µM; in [6], 71.4 µM; in experiment [3], greater than 71.2 µM; in experiment [7] it was greater than 90.2 µM; in [8], 51.8 µM. This molecule yielded a TGI in experiment [4] of 60.2 µM.

`COc1ccc2c(c1)CC[C@@H]1C2CC[C@]2(C)C(=O)N(CCN(C)C)C(=O)CC12` (stereo partly specified): the TGI in [1], in experiment [5], in [2], in experiment [6], in experiment [7] and in experiment [9] was greater than 100 µM each time. Moreover, the TGI in experiment [4] and in experiment [10] was greater than 100 µM each time.

For the origin of these results see PubChem BioAssay (NCI).
